Test results: patent US7205298B2, “Substituted triazine kinase inhibitors” (Janssen Pharmaceutica N.V., priority 2002, dated 2007)
pIC50: −log10 of the molar value.

Assays:
A375 malignant melanoma = test: Inhibition of cell proliferation, 14C-thymidine incorporation, A375; format: cell-based; conditions: Homo sapiens, A-375
Experimental: (§1) The ability of a test compound to inhibit the proliferation of cell growth was determined by measuring incorporation of ^14C-labelled thymidine into newly synthesized DNA within the cells. This method was used on cell lines derived from carcinomas originating from several tissues such as HeLa cervical adenocarcinoma (American Type Culture Collection (ATCC), Virginia, Cat. #CCL-2), HCT-116 colon carcinoma (CCL-247), MDA-MB-231 (Xenogen Corp.), PC-3 prostate adenocarcinoma (ATCC CRL-1435) and A375 malignant melanoma (ATCC CRL-1619).
(§2) Using this method, the effect of a compound on cell growth of cells with many different phenotypes can be determined. Cells were trypsinized and counted and 3000–8000 cells were added to each well of a 96-well CytoStar tissue culture treated scintillating microplate (Amersham #RPNQ0160) in complete medium in a volume of 100 μl. Cells were incubated for 24 hours in complete medium at 37° C. in an atmosphere containing 5% CO2. 1 μL of test compound in 100% DMSO was then added to the wells of the plate. DMSO only was added to control wells. Cells were incubated for 24 more hours in complete medium at 37° C. in an atmosphere containing 5% CO2. […] The degree of methyl ^14C-thymidine incorporation was quantified on a Packard Top Count.

MAP Kinase ERK-2 = molecular target: T1, MAP Kinase ERK-2 (Rattus norvegicus, UniProt P63086); test: Kinase selectivity assay MAP Kinase ERK-2; format: biochemical
T1 construct: polyhistidine (N); purchased BIOMOL SE-137; host or cells: E. coli
Experimental: Assays to test compound inhibition of other kinases were preformed using methods that measure the amount of phosphorylation of a biotinylated peptide substrate. Biotinylated peptide substrates were selected from the literature as appropriate for the enzyme being evaluated. The general procedure used to assay for kinase activity is as follows: a kinase reaction mix was prepared in 50 mM Tris-HCl pH=8, 10 mM MgCl2, 0.1 mM Na3VO4, 1 mM DTT, 10 μM ATP, 0.25–1 μM biotinylated peptide substrate, 0.2–0.8 μCuries per well ^33P-γ-ATP (2000–3000 Ci/mmol). Assay conditions vary slightly for each protein kinase, for example, insulin receptor kinase requires 10 mM MnCl2 for activity and Calmodulin-dependent protein kinase requires calmodulin and 2 mM CaCl2. The reaction mixture was dispensed into the wells of a streptavidin coated Flashplate and 1 μL test compound in 100% DMSO was added to a 100 μL reaction volume resulting in a final concentration of 1% DMSO in the reaction. Enzyme was diluted in 50 mM Tris-HCl pH=8.0, 0.1% BSA and added to each well. The reaction was incubated for one hour at 30° C. in the presence of a test compound. […] The plate was read on a scintillation counter to determine ^33P-γ-ATP incorporated into the immobilized peptide substrate. […] A maximum and minimum signal for the assay was determined on each plate. […]

MDA-MB-231 = test: Inhibition of cell proliferation, 14C-thymidine incorporation, MDA-MB-231; format: cell-based; conditions: Homo sapiens
Experimental: as §1, §2

T1 sequence (P63086 whole entry): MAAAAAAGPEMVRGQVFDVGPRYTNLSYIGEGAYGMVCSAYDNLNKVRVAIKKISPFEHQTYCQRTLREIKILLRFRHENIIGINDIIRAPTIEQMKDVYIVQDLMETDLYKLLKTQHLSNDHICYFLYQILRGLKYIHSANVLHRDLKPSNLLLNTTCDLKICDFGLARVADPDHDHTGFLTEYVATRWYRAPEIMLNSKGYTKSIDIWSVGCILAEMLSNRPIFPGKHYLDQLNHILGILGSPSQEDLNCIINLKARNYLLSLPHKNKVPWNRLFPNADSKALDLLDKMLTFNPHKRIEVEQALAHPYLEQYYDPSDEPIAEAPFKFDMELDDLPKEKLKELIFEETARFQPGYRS

## OCCCNc1cc(-c2ncnc(Nc3cccc(Cl)c3)n2)ccn1 [Compound 2, 3-((4-(4-((3-chlorophenyl)amino)-1,3,5-triazin-2-yl)-2-pyridinyl)amino)-1-propanol]
A375 malignant melanoma
  pIC50: 7.10
MAP Kinase ERK-2
  pIC50: < 5.00

## OCCCNc1cncc(-c2ncnc(Nc3cccc(Cl)c3)n2)c1 [Compound 1, 3-((5-(4-((3-chlorophenyl)amino)-1,3,5-triazin-2-yl)-3-pyridinyl)amino)-1-propanol]
MDA-MB-231
  pIC50: 6.48
MAP Kinase ERK-2
  pIC50: < 4.00
